Test results as given in US20250243160A1, “INDOLE DERIVATIVES FOR TARGETING AUTOPHAGY” (Automera PTE. LTD, priority 2024, published 2025).

How the values were obtained:
Recombinant p62 protein = Recombinant p62 protein (Homo sapiens, UniProt Q13501); assay: Surface plasmon resonance (SPR) compound binding to p62; settings: 15° C
Protocol: Recombinant p62 protein was buffer exchanged into Biacore SPR running buffer (Cytiva 100671) using the Slide-A-Lyzer Mini Dialysis system 7K MWCO (Thermo Fisher Scientific, Cat no. 69560). The final protein concentration was determined using the Nanodrop One spectrophotometer (Thermo Fisher Scientific, cat no. ND-ONE-W), with calibration for the dialysis buffer.
The prepared protein was diluted in sodium acetate buffer (NaAc, pH 5.5, Cytiva) to concentrations ranging from approximately 0.25-40 μg/mL. Post-immobilization, the protein required approximately 16 hours of equilibration in running buffer supplemented with 1% DMSO at 15° C. to ensure adequate surface equilibration and protein reorganization.
All SPR experiments were conducted at a constant temperature of 15° C. The SPR chip surface was activated using EDC/NHS for a contact time of 6-10 min at a flow rate of 10 μL/min. This was followed by protein immobilization for 2100 seconds and ethanolamine capping for 420 seconds, both at the same flow rate. Immediately after immobilization, the NH2-REEE peptide was analyzed in Single Cycle Kinetics mode (SCK) to verify surface activity, ensuring it binds the sample with the published affinity (˜20 μM by SPR).
For general compound binding studies, experiments were performed at 15° C. using a running buffer composed of 10 mM HEPES, 150 mM NaCl, 1 mM DTT, 0.05% Tween 20, and 1% DMSO at pH 7.4. The test compound was initially prepared at a 20 mM concentration in DMSO and subsequently titrated in 2-fold dilutions. For each assay, 2 μL of the compound was mixed with 198 μL of the running buffer, and the mixture was thoroughly pipetted approximately 15 times for homogenization.
A series of blank injections (0 μM concentration) were included for double referencing, with at least 8 or 16 per plate depending on the format. Typical injection parameters were 120 seconds for association and 180 seconds for dissociation at a flow rate of […]. A four-point solvent correction was prepared with DMSO concentrations ranging from 2% to 0.5% in the buffer. Post each compound injection, the system's needles were washed with 50% DMSO.
Analysis of the SPR data was conducted using the Cytiva Evaluation software. The binding levels at the late time-point of each interaction were corrected for reference, then normalized to percentage bound values to account for variations in immobilization levels, protein molecular weight, and compound molecular weight.
Compound binding studies were carried out according to experimental procedures above and SPR % occupancy was determined and summarized in Table 7.

p62 oligomers = target: T1, p62 oligomers (Homo sapiens, UniProt Q13501); assay: p62 oligomerization assay by Western blot in HeLa cells; type: cell-based; settings: 24 hours treatment, relative to vehicle control (DMSO)
T1 construct: endogenous in cells; host or cells: HeLa
T1 sequence (Q13501 whole entry): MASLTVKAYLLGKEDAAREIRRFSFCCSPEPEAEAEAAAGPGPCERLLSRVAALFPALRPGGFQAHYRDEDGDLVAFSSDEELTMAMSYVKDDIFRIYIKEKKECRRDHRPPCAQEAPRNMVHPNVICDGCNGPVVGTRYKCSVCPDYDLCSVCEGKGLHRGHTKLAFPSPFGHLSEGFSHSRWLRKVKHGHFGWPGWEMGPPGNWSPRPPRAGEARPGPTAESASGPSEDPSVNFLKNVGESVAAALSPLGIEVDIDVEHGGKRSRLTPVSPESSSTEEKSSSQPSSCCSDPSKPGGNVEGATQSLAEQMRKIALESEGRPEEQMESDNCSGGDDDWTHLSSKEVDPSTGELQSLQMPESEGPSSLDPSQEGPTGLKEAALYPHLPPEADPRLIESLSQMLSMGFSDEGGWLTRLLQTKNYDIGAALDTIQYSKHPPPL
Protocol: (§1) HeLa cells were seeded in 6-well plates (700,000 cells) and allowed to adhere overnight. Media was replaced one hour before administering either vehicle (DMSO) or test compounds. After 24 hours of treatment, the media was discarded, and cells were rinsed once with ice-cold 1×PBS before detached from plates with ice-cold RIPA Lysis and Extraction Buffer (Thermo Fisher Scientific) which was supplemented with protease and phosphatase inhibitors. The resulting cell suspensions were transferred to pre-chilled microcentrifuge tubes, incubated on ice for 20 min with intermittent mixing and then centrifuged at 12,000 rpm for 20 min at 4° C. The supernatants were then aspirated slowly and transferred into new tubes kept on ice. The protein concentration in the samples was determined using BCA kit (Thermo Fisher Scientific) as per manufacturer's instructions.
(§2) For the p62 oligomerization and LC3 lipidation assays, cell lysates were prepared using RIPA buffer supplemented with 2% SDS and benzonase (Sigma). The lysates were then combined with 4× Laemmli protein sample buffer (Bio-Rad), heated at 70° C. for 10 min and subjected to a brief centrifugation of 10-15 seconds.
(§3) For p62 oligomerization and LC3 lipidation assays, lysates containing 30 μg of protein and for BRD4 and FKBP12(F36V) degradation assays, lysates containing 20 μg of protein, were loaded slowly into the wells of 4-20% gradient Tris-glycine gels (Bio-Rad). The gels were run at 100V until completion and transferred onto PVDF membranes. Membranes were blocked using 5% milk in TBS-Tween (0.1%) buffer at room temperature for 1 hour. The membranes were incubated with primary antibody in 5% milk-TBST with shaking, overnight at 4° C. The primary antibodies used were: p62 (Novus Biologicals 2C11, H00008878-MO1), LC3A/B (Cell Signalling Technology D3U4C, 12741S), FKBP12 (Abcam ab24373), BRD4 (Cell Signalling Technology E2A7X, 13440S), GAPDH (Cell Signalling Technology D4C6R, 97166S), and β-Actin (Proteintech 66009-1-Ig). Following primary antibody incubation, membranes were washed thrice with TBST 10 min before and after incubation with secondary-HRP conjugated antibody in 5% milk-TBST for 1 hour at room temperature. The secondary antibodies used were: Anti-Mouse IgG HRP Conjugate (Promega W4021B) and Anti-Rabbit IgG HRP Conjugate (Promega W4011). For the p62 oligomerization assay, the total protein levels were assessed using Ponceau staining (Thermo Fisher Scientific) of PVDF membrane as per recommendation by manufacturer's guidelines.
(§4) Imaging was acquired using SuperSignal™ West Pico PLUS Chemiluminescent Substrate (Thermo Fisher Scientific) with iBright Invitrogen FL100 imaging system. Band signal intensity, reflective of protein concentrations, were quantified using Invitrogen™ iBright™ Analysis and Image J software.
HeLa cells were treated with compounds for 24 hours to evaluate the effect of these compounds on p62 oligomerisation activity. The resulting changes in levels of p62 oligomers were assessed by Western blotting, as described in experimental procedures. The fold change of p62 oligomer levels induced by compound treatment relative to vehicle control (DMSO) was determined and summarized in Table 8. Specifically, FIGS. 2A-C show Western blot images and their corresponding quantification showing the levels of high molecular weight (100-200 kDa) p62 oligomers by 24 hours compound treatments at listed concentrations, relative to vehicle control (DMSO) in HeLa cells. Protein loading consistencies was assessed by Ponceau staining (not shown).

LC3 protein = assay: LC3 lipidation (LC3-II/LC3-I) assay by Western blot in HeLa cells; type: cell-based; set-up: key: ++: >2-fold change in LC3-II/LC3-I relative to DMSO control; +: <2-fold change in LC3-II/LC3-I relative to DMSO control; −: no change in LC3-II/LC3-I relative to DMSO control; settings: 24 hours treatment, relative to vehicle control (DMSO)
Protocol: as §1, §2, §3, §4
HeLa cells were treated with compounds for 24 hours to evaluate the effect of these compounds on LC3-II/LC3-I levels, a measure of autophagy activation. The changes in levels of LC3-I, LC3-II and […] (loading control) were assessed by Western blotting, as described in experimental procedures. The fold increase of LC3-II/LC3-I levels induced by compound treatment relative to vehicle control (DMSO) was determined and summarized in Table 9. Specifically, FIGS. 3A-C show Western blot images and their corresponding quantification showing the lipidation levels of LC3 protein (LC3-II/LC3-I) by 24 hours compound treatments at listed concentrations, relative to vehicle control (DMSO) in HeLa cells.

Recombinant p62 protein, sequence (Q13501 whole entry, species assumed): as the sequence (Q13501 whole entry) above

| SMILES | receptor occupancy at 100 µM (Recombinant p62 protein) [%] | p62 oligomerization (fold change of p62 oligomer levels) (p62 oligomers) | LC3 lipidation (fold increase of LC3-II/LC3-I levels) (LC3 protein) |
| --- | --- | --- | --- |
| OCCNCc1cc(F)cc2c1ccn2Cc1ccccc1 [Compound 31] | > 70 | ++ (>2-fold change relative to DMSO control) | + (<2-fold change in LC3-II/LC3-I relative to DMSO control) |
| OCCNCc1cccc2c1ccn2Cc1ccc(Cl)cc1 [Compound 11] | > 70 | ++ (>2-fold change relative to DMSO control) | ++ (>2-fold change in LC3-II/LC3-I relative to DMSO control) |
| OCCNCc1cccc2c1ccn2CCC1CCNCC1 [Compound 26] | 30 to 70 | ++ (>2-fold change relative to DMSO control) | + (<2-fold change in LC3-II/LC3-I relative to DMSO control) |
| OCCNCc1cccc2c1ccn2Cc1c[nH]cn1 [Compound 21, 2-(((1-((1H-imidazol-4-yl)methyl)-1H-indol-4-yl)methyl)amino)ethan-1-ol] | 30 to 70 | + (<2-fold change relative to DMSO control) | − |
| CC(C)NCC(O)COc1cccc2c1ccn2Cc1ccccc1 (stereo not drawn) [Compound 6, 1-((1-benzyl-1H-indol-4-yl)oxy)-3-(isopropylamino)propan-2-ol] | 30 to 70 | ++ (>2-fold change relative to DMSO control) | + (<2-fold change in LC3-II/LC3-I relative to DMSO control) |
| CC(C)(C)OC(=O)N1Cc2ccc(Cn3ccc4c(CNCCO)cccc43)cc2C1 [Compound 27] | > 70 | ++ (>2-fold change relative to DMSO control) | + (<2-fold change in LC3-II/LC3-I relative to DMSO control) |
| Cc1cn(CC2CCOCC2)c2cccc(CNCCO)c12 [Compound 49] | 30 to 70 | + (<2-fold change relative to DMSO control) | − |
| OCCNCc1cccc2c1ccn2Cc1ccc(F)cc1 [Compound 10] | > 70 | ++ (>2-fold change relative to DMSO control) | + (<2-fold change in LC3-II/LC3-I relative to DMSO control) |
| Cc1cn(Cc2ccc(F)cc2)c2cccc(CNCCO)c12 [Compound 48] | 30 to 70 | ++ (>2-fold change relative to DMSO control) | ++ (>2-fold change in LC3-II/LC3-I relative to DMSO control) |
| OCCNCc1cccc2c1ccn2-c1ccccc1 [Compound 9, 2-(((1-phenyl-1H-indol-4-yl)methyl)amino)ethan-1-ol] | > 70 | ++ (>2-fold change relative to DMSO control) | + (<2-fold change in LC3-II/LC3-I relative to DMSO control) |
